From US20230277630A1, “METHODS AND COMPOSITIONS FOR TREATING AMYOTROPHIC LATERAL SCLEROSIS” (Amylyx Pharmaceuticals, Inc., priority 2022, published 2023)

How the values were obtained:
[1] = Chemical stability in HBSSg_7.4 and HBSS_8.5; format: physicochemical
Description: The test article was prepared in DMSO stock (0.5 mM), and aliquots of the DMSO stock were added to each matrix. The nominal concentration of each component was 0.5 μM in each matrix. […] At pre-determined time points, an equal volume of acetonitrile with internal standard was added to each vial, and the mixture was placed at 4° C. until the end of the assay. The peak areas of the test article and IS of each sample were determined by LC-MS/MS, and the ratios of the peak areas (analyte: IS) were calculated.

[2] = Non-specific binding assessment, uptake transporter format (cell-free poly-D-lysine plates); format: in vitro ADME; details: cell-free poly-D-lysine-coated 24-well plates, without BSA pre-incubation, both matrices
Description: Two treatments (three wells each) were included: in the first treatment, the wells were pre-incubated for 5 minutes with HBSSg_7.4_BSA or HBSSg_8.5_BSA; in the second treatment, no pre-incubation was performed (Table 32). After the pre-incubation, the solution was aspirated, and dosing solution (500 μL) was added to each well. […] After the incubation, aliquots (200 μL) were withdrawn from each chamber, combined with an equal volume of acetonitrile containing IS, and stored at 4° C. until analysis.

BCRP = target: T1, BCRP (Homo sapiens, UniProt Q9UNQ0); experiment: BCRP IC50 assessment, bidirectional cladribine transport in BCRP-MDCK cells
T1 sequence (Q9UNQ0 1-655): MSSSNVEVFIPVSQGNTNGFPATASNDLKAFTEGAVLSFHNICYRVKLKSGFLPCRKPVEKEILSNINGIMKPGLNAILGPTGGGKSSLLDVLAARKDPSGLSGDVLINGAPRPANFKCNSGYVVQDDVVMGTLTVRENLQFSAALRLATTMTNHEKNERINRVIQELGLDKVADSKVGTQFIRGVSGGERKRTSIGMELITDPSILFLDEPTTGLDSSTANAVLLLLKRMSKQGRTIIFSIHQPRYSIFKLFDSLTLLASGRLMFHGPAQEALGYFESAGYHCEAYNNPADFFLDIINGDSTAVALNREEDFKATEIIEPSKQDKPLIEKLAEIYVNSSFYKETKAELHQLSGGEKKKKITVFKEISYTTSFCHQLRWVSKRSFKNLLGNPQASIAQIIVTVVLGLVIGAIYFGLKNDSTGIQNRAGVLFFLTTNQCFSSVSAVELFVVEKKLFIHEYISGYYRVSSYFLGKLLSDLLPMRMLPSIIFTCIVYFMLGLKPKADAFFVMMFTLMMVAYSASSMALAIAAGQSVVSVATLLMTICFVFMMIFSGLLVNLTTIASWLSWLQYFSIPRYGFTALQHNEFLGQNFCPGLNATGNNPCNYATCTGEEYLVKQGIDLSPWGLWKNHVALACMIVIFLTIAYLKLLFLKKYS
Description: After 30 minutes, the pre-incubation solution was aspirated.

[3] = Relevant concentrations of TUDCA and PB for in vitro transporter assessment ([I]1, [I]2, Iin,max); details: for Plasma Cmax (total [I]1): component of AMX0035; for [I]2: estimated, highest oral dose TUDCA 1000 mg, PB 3000 mg; for Unbound Cmax (Unbound [I]1) / Unbound [I]in, max: projected
OCT2 = target: T2, OCT2 (Homo sapiens, UniProt O15244)
T2 sequence (O15244 1-555): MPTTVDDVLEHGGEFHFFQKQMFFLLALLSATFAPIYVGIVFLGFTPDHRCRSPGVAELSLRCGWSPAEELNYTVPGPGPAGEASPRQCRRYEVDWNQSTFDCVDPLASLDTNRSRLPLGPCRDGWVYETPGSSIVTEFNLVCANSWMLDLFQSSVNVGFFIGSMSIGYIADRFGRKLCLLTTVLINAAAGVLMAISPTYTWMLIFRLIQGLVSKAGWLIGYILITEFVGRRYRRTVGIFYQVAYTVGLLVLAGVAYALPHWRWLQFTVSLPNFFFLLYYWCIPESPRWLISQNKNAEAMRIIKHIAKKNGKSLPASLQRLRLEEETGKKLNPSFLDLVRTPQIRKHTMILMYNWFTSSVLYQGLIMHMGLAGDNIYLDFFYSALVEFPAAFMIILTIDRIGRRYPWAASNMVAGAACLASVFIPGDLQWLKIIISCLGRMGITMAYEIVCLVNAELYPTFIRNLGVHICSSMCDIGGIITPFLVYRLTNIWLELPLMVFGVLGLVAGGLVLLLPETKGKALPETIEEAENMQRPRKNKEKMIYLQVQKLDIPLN

in vivo = details: male, CD (Sprague-Dawley) IGS, rat; for Cmax: po, 840 mg/kg, Cmax plasma level
[4] = CYP reaction phenotyping: CYP control (negative control without CYP enzymes); details: CYP Control (without CYP enzymes) 0.1 mg protein/mL, TA 5 μM
Description: The reaction was initiated by the addition of NADPH, followed by incubation at 37° C.

[5] = target: T3, human liver microsomes (HLM) (Homo sapiens, UniProt P20813); experiment: CYP reaction phenotyping using HLM and chemical inhibitors (% remaining); format: in vitro ADME; details: human, microsomes, 5 μM, pH 7.4
T3 construct: from tissue; host or cells: pooled human liver microsomes
T3 sequence (P20813 1-491): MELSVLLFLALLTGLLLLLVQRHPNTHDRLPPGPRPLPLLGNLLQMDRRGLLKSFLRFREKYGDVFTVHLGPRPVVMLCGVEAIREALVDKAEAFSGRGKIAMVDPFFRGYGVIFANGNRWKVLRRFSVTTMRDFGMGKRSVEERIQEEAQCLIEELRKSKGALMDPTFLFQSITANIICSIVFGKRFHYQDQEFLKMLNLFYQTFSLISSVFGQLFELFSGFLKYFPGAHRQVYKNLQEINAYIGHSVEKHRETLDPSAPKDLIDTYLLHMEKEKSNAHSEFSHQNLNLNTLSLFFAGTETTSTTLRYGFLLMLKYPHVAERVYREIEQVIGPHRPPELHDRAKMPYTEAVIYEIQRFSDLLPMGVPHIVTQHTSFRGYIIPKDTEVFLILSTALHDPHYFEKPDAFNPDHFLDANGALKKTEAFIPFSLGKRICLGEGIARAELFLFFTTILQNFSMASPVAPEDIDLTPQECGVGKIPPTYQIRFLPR
Description: % Remaining of TA=100×At/A0
Where, At and A0 are the peak area ratio of TA to IS at time t and at time zero, respectively.

SMILES: O=C(O)CCCc1ccccc1 [PB, sodium phenylbutyrate]
- Percent of the 0-minute value ([1]; HBSSg_7.4, Overnight (1020-[…])): 105%
- Percent of the 0-minute value ([1]; HBSSg_7.4, sampling time 0 minutes): 100%
- Percent of the 0-minute value ([1]; HBSSg_7.4, sampling time 120 minutes): 99.3%
- chemical stability in the tested matrices ([1]; HBSSg_7.4 and HBSS_8.5, 37° C., 0.5 μM): appeared to be stable
- Percent of the 0-minute value ([1]; HBSSg_8.5, Overnight (1020-[…])): 98.6%
- Percent of the 0-minute value ([1]; HBSSg_8.5, sampling time 0 minutes): 100%
- Percent of the 0-minute value ([1]; HBSSg_8.5, sampling time 120 minutes): 79.4%
- recovery at 5 min [2]: > 90%
- IC50 (BCRP): 2390 to 7160 µM
- estimated [I]2 ([3]; Table 28): 64447 µM
- projected unbound Cmax ([3]; Table 28): 148 µM
- Plasma Cmax (total [I]1) [3]: 826 µM
- [I]2 [3]: 64447 µM
- projected unbound Iin,max ([3]; human): 326 µM
- unbound [I]1 ([3]; human): 148 µM
- Unbound Cmax (Unbound [I]1) [3]: 148 µM
- Unbound [I]in, max [3]: 326 µM
- IC50 (OCT2): > 14800 µM
- Cmax (in vivo): 10200 ng/mL

SMILES: C[C@H](CCC(=O)NCCS(=O)(=O)O)[C@H]1CC[C@H]2[C@@H]3[C@@H](O)C[C@@H]4C[C@H](O)CC[C@]4(C)[C@H]3CC[C@]12C [TUDCA, tauroursodeoxycholic acid]
- recovery at 5 min [2]: > 90%
- IC50 (BCRP): 296 to 889 µM
- % Remaining of TA ([4]; 0 min): 100%
- % Remaining of TA ([4]; 5 min): 99.4%
- % Remaining of TA ([4]; 10 min): 97.9%
- % Remaining of TA ([4]; 20 min): 95.9%
- % Remaining of TA ([4]; 30 min): 93.7%
- estimated [I]2 ([3]; Table 28): 8005 µM
- projected unbound Cmax ([3]; Table 28): 1.62 µM
- unbound [I]1 ([3]; Table 28): 1.62 µM
- Plasma Cmax (total [I]1) [3]: 108 µM
- [I]2 [3]: 8005 µM
- projected unbound Iin,max ([3]; oral administration, Table 28): 3.48 µM
- Unbound Cmax (Unbound [I]1) [3]: 1.62 µM
- Unbound [I]in, max [3]: 3.48 µM
- IC50 (OCT2): > 162 µM
- Tmax (in vivo; individual Tmax): 1 to 2 h
- Cmax (in vivo): 298 ng/mL
- % Remaining of TA (n = 3) Average ([5]; 0 h): 100%
- % Remaining of TA (n = 3) Average ([5]; 5 min): 112%
- % Remaining of TA (n = 3) Average ([5]; 10 min): 112%
- % Remaining of TA (n = 3) Average ([5]; 20 min): 122%
- % Remaining of TA (n = 3) Average ([5]; 0.5 h): 116%
- % Remaining of TA (n = 3) Average ([5]; 1 h): 102%
